Test results reported in patent US20260242440A1, “NOVEL MEANS TO MODULATE NMDA RECEPTOR-MEDIATED TOXICITY” (FUNDAMENTAL PHARMA GMBH, priority 2018, published 2026).

Experiments:
HEK293 cells = assay: Luminescent cytotoxicity assay, HEK293 cells transfected with GRIN1 and GRIN2A or GRIN2B; assay type: cell-based, human; settings: compound added 6 h after transfection; cell death 48 h after transfection
Protocol: HEK293 cells were cultured in Dulbecco's Modified Eagle Medium (DMEM, Gibco™ 41965-039) supplement with 10% Fetal Bovine Serum (FBS, Gibco™, 10270), 1% Sodium Pyruvate (Gibco™, 11360070), 1% MEM NEAA (GibcoT^M, 11140035) and 0.5% Penicillin-Streptomycin (P-S; Sigma, P0781) and Passagel5-25 were used for experiments.
To test the cytotoxicity of compounds according to the present invention, HEK293 cells (70-80% confluent) were transfected 24 hours after plating with both GRIN1 and GRIN2 Å or GRIN2B, respectively (1:[…]) with Lipofectamine 2000 according to manufacturer's instructions. The relative number of dead cells in the population at the indicated time points after transfection was measured with the CytoTox-Glo™ Cytotoxicity assay (Promega, G9290) according to manufacturer's instruction with minor modification. Briefly, 10% of total medium were mixed with 10 μL AAF-amino luciferin to reach a final volume at 200 μL with water, the dead cell relative luminescence units (DRLU) was measured by GloMax (Promega) in a 96 well white bottom polystyrene microplate (Corning Costar®, 3912). After all the measurements, lysis reagents have been added to the cells and 10% of lysate was used for the total cell relative luminescence units (TRLU) measurement. Cell death was calculated by the following equations: […]
For drug testing, P4, P8, P9, P13 and P15 were added to the medium at indicated concentration 6 h after transfection. DRLU, TRLU and cell death were measured and calculated 48 h after transfection.

NMDA receptor = assay: NMDA-induced calcium transients (Fura2 calcium imaging); assay type: cell-based, mouse; settings: hippocampal neurons, 6 min NMDA (20 μM) application
Protocol: In a further experiment, the impact of P4 and P15 on NMDA-induced calcium transients was assessed. Briefly, for calcium imaging, primary hippocampal neurons on coverslips were loaded with the cell-permeable, high-affinity ratiometric calcium indicator Fura2-AM (Invitrogen™ F1221), at 1 μM in CO2-independent culture medium (CICM; CICM contains: 10 mM HEPES, 140 mM NaCl, 2.5 mM KCl, 1.0 mM MgCl2, 2.0 mM CaCl2, 1.0 mM Glycine, 35.6 mM Glucose and 0.5 mM Na-pyruvate) for 30 min at 37° C., then washed and left in CICM for another 30 min to allow for de-esterification. Fura2 was excited at 340/11 nm and 380/11 nm, and fluorescence emission was obtained from a 40× UV compatible objective (LUMPLFLN, Olympus) through a 510/20 nm emission filter. For quantification, ImageJ was used to calculate average background-subtracted fluorescence intensities for 340 and 380 nm excitation (F340 and F380) from each neuron. Intracellular calcium levels were plotted as F340/F380 ratios over time, from which the NMDA response amplitude and area under the curve (AUC) was calculated to quantify NMDA-induced calcium influx.

[1] = system: primary mouse hippocampal neurons; assay: NMDA receptor induced mitochondrial membrane potential breakdown (Rh123 imaging); assay type: cell-based; settings: polypeptides expressed via rAAV; bath application of 20 μM NMDA
Protocol: Coverslips with primary cultured neurons (DIV15-DIV17) were used to examine mitochondrial membrane potential (Ψm) and mitochondrial calcium signalling, which was performed at room temperature in CO2-independent culture medium (CICM) containing: 10 mM HEPES, 140 mM NaCl, 2.5 mM KCl, 1.0 mM MgCl2, 2.0 mM CaCl2, 1.0 mM Glycine, 35.6 mM Glucose and 0.5 mM Na-pyruvate. All images were obtained by a cooled-CCD camera (iXon 887, Andor) on an upright microscope (BX51WI, Olympus). Fluorescence excitation was provided by a xenon arc lamp in combination with an excitation filter wheel (MT-20, Olympus). Data were collected using Cell^R software (Olympus), analysed using ImageJ and quantified using Igor Pro (WaveMetrics). Ψm was detected with the small molecule fluorescence indicator Rhodamine 123 (Rh123; Molecular Probe™, R302). Primary cultured neurons were loaded with 4.3 μM Rh123 in CICM at 37° C. for 30 min, then washed and left in CICM for another 30 min before recording. At the end of each experiment, the mitochondrial uncoupler FCCP (5 μM, Sigma-Aldrich, Cat #C2920) was applied to the cells to reach the maximal Rh123 fluorescence intensity. Rh123 was imaged with 470±20 nm excitation and 525±25 nm emission wavelengths using a 20× objective. Rh123 fluorescence intensity was measured in the nucleus to minimize contamination from cytosolic mitochondrial signal and Rh123 fluorescence intensity was normalized to the maximum FCCP signal for each region of interest.
Mitochondrial dysfunction is a hallmark of NMDA receptor excitotoxicity and an early event en-route to neuronal death. A parameter that is often used to assess mitochondrial integrity is the mitochondrial membrane potential. A breakdown of the mitochondrial membrane potential can be observed after exposure of hippocampal or cortical neurons to NMDA and indicates excitotoxicity-associated mitochondrial dysfunction. Therefore, the inventors investigated the effect of polypeptides comprising the sequence of SEQ ID NO:5 or SEQ ID NO: 54 as well as of the control TRMP5 sequence (SEQ ID NO: 55) on mitochondrial membrane potential break down in primary mouse hippocampal neurons. Excitotoxicity leading to mitochondrial membrane potential break down was induced with bath application of 20 μM NMDA. After 11 minutes, the mitochondrial uncoupler, carbonylcyanide-p-trifluoromethoxyphenylhydrazone (FCCP) was added. Addition of FCCP leads to break-down of the mitochondrial membrane potential and served as a control of the test system.

[2] = system: primary mouse hippocampal neurons; assay: NMDA induced cell death (excitotoxicity) in cultured primary neurons; assay type: cell-based; settings: polypeptide expressed via rAAV infection on DIV3, NMDA 20 μM for 10 min, cell death assessed 24 h later
Protocol: Primary mouse hippocampal and cortical neurons were prepared and maintained as known. Briefly, hippocampi or cerebral cortex from P0 C57Bl/6NCrl mice were dissociated and plated at a density of 1.2*105/cm^2 in Growth Medium (GM), consisting of Neurobasal A medium (Gibco™, 10888022), 2% serum free B27™ Supplement (Gibco™, 17504044), 1% rat serum (Biowest, S2150), 0.5 mM L-Glutamine (Sigma, G7513) and 0.5% P-S. Cytosine β-D-arabinofuranoside (AraC; Sigma, C1768; 2.8 μM) was added on DIV3 to prevent the proliferation of glial cells. From DIV8, half of the medium was replaced by GM without Rat serum every 48 h until being used for experiments. 24 h before experiments, GM was replaced with transfection medium (10 mM HEPES, pH 7.4, 114 mM NaCl, 26.1 mM NaHCO3, 5.3 mM KCl, 1 mM MgCl2, 2 mM CaCl2, 30 mM glucose, 1 mM glycine, 0.5 mM C3H3NaO3, and 0.001% phenol red and 10% of phosphate-free Eagle's minimum essential medium, supplemented with 7.5 µg/ml insulin, 7.5 µg/ml transferrin and 7.5 ng/ml sodium selenite (ITS Liquid Media Supplement, Sigma-Aldrich Cat #I3146)). Primary hippocampal neurons were used in live cell imaging, cell death experiments, while cortical neurons were used for mRNA and protein extraction analysis.
All viral particles were produced and purified as known in the art. All TRPM4 derived peptides (comprising SEQ ID NO:5, or any of SEQ ID NO:46 to SEQ ID NO:56) were cloned into rAAV backbone by PCR. shRNA against mouse TRPM4 were designed by BLOCK-iT™ RNAi Designer from Thermofisher to target: […] (SEQ ID NO:44, shTRPM4-1) and […] (SEQ ID NO:45, shTRPM4-2). Scramble shRNA (shSCR) has been tested and proven to have no known targets in mice. GPI anchor ([…], e.g. used in SEQ ID NO:53) sequences were synthesized by Eurofins Genomics (Ebersberg, Germany). All primers were synthesized and all plasmids were confirmed by sequencing by Eurofins Genomics.
In order to investigate the role of TRPM4 in NMDA receptor mediated excitotoxicity, the inventors used RNA interference strategies to knock down TRPM4. Cultured primary mouse hippocampus neurons were infected on day 3 in vitro (DIV3) with recombinant adeno-associated viruses (rAAVs) providing for expression of a scramble control (shSCR), shTRPM4-1 (SEQ ID NO:44) or shTRPM4-2 (SEQ ID NO:45). On DIV15-16, neurons were challenged with N-methyl-D-aspartate (NMDA, 20 μM) for 10 min. After NMDA wash out, neurons were kept in the culture medium for another 24 h before analysis. […] Evidently, TRPM4 is thus involved in the process of NMDA receptor mediated excitotoxicity.
In a next step, the inventors tried to identify regions in the mouse TRPM4 protein potentially involved in NMDA receptor mediated excitotoxicity. For this purpose, polypeptide fragments of mouse TRPM4 protein were generated and their impact on NMDA induced excitotoxicity analysed. To do so, primary neuron cultures were infected with respective rAAVs on DIV3, challenged with NMDA (20 μM) for 10 min on DIV17 and cell death assessed 24 hours later.
The sequence of SEQ ID NO:5 in TRPM4 is located in vivo just beneath the plasma membrane. […] To test this hypothesis, the inventors created a fusion protein comprising SEQ ID NO:5 and a GPI anchor, SEQ ID NO:57. The sequence of the fusion is given in SEQ ID NO:53. Neurons infected with rAAV and expressing SEQ ID NO:47 (control) or SEQ ID NO:53 were exposed to NMDA (20 μM) for 10 min on DIV15-16, with cell death assessed after 24 h.
In a next step, the inventors created a mutant of SEQ ID NO:5, in which two adjacent phenylalanine residues where substituted by tyrosine residues (SEQ ID NO: 54). […] TRPM5 is a protein related to but nonetheless distinct to TRPM4. The region in TRPM5 corresponding to SEQ ID NO:5, SEQ ID NO:55, shares only about 60% sequence identity with SEQ ID NO:5. Neurons were infected on DIV3 with rAAVs expressing SEQ ID NO: 5, SEQ ID NO: 54 or SEQ ID NO:55 and exposed to NMDA (20 μM) for 10 min on DIV17, with cell death assessed 24 h later. […]

[3] = system: primary mouse hippocampal neurons; assay: as above; assay type: cell-based; settings: neurons incubated 1 h with 1 or 10 μg fusion protein before NMDA 20 μM 10 min; cell death 24 h later

## CNCC1CCN(C(=O)c2ccc(-n3cnc4ccccc43)cc2)CC1 [P8]
HEK293 cells
  NMDA receptor induced cell death: reduced the level of NMDA receptor induced cell death

## O=C(NCc1ccc(CN2CCC(O)CC2)cc1)C1CC(F)(F)CN1 (centres unmarked) [P9]
HEK293 cells
  NMDA receptor induced cell death: reduced the level of NMDA receptor induced cell death

## CC1(CN)CCN(CC(=O)Nc2cc(Cl)ccc2Cl)C1 (centres unmarked) [P13]
HEK293 cells
  NMDA receptor induced cell death: reduced the level of NMDA receptor induced cell death

## MK-801 maleate [reference compound]
NMDA receptor
  NMDA-induced calcium transients: completely blocked

## SEQ ID NO:55: corresponding region of mouse TRPM5, about 60% sequence identity with SEQ ID NO:5, negative control (NSEDRAFALLVRRNHSWSRTTCLHLATEADAKAFFAHDGVQAFLTKIWWGDMATGTP; listed as Mus musculus) [reference compound]
[1]
  NMDA receptor induced mitochondrial membrane potential breakdown: not capable of preventing NMDA receptor induced mitochondrial membrane potential breakdown
[2]
  protection against NMDA induced cell death (neuroprotective effect): not capable of reducing NMDA receptor-mediated cell toxicity
[2]; listed as SEQ ID NO: 55
  protection against NMDA induced cell death (neuroprotective effect): did not reduce NMDA receptor-mediated cell toxicity

B1: SEQ ID NO:56: fusion protein of SEQ ID NO:5 and protein transduction domain TAT (SEQ ID NO:42) (protein)
chain: RKKRRQRRRSQPNSEERAARLLLRRCPLWGEATCLQLAMQADARAFFAQDGVQSLLTQKWWGEMDSTTP
modifications: Fusion protein composed of TAT peptide and SEQ ID NO: 5
[3]
  protection against NMDA excitotoxicity (cell death): protected neurons from NMDA excitotoxicity
